# Measurements as given in patent US6492419B1, “Aqueous insecticidal pour-on formulation” (Schering-Plough Animal Health Corp., priority 1997, dated 2002).
# Columns and labels:
# Format in all cases: in vivo
# [1] = system: Bovicola ovis (Schrank), sheep body louse; test: Pen trial of diflubenzuron pour-on against sheep lice (Examples 2-4); settings: for % Lice reduction: corrected lice counts
# Description: Order—Phthiraptera, Sub Order—Mallophaga, Family—Trichodectidae, Genus—Damalinia (Bovicola, Trichodectes), Species—Bovicola ovis (Schrank) and Common name—Sheep body louse.
# The sheep used in this study were a uniform line of Merino wethers heavily infected with lice.
# The method requires examination of twenty partings each 10 cm long, along two contours on the left and right sides covering the wool growing regions of the animal. At each of the 40 recorded sites all live adult lice are counted. Site counts are summed to give a total count for the animal.
# Within 24 hours of shearing, treatments were applied as a single stripe along the backline of the sheep. The dose rate applied was based on 20 mL of treatment per animal which is based on all test animals being in the 30.1-55 kg weight range.
# The delivery apparatus for each formulation was a commercial applicator, set to deliver 1×20 mL doses to the sheep backline. The gun was calibrated using a volumetric cylinder and checked twice before and once after treatment.
# To avoid the possibility of rain complicating the post treatment situation the sheep were kept in pens for a minimum of 48 hours. Then on the morning of the 25 th day of the trial, they were placed into their paddocks. […]
# [2] = Tissue residues after aqueous pour-on, sheep; settings: 20 mg/kg pour-on, LOQ = 0.02 mg/kg
# Experimental: (§1) Tissue residue studies were carried out following application of the aqueous pour-on to both sheep and cattle (Reference is made to page 1, lines 34 and 35 where it is mentioned that treatment with non aqueous pour-on formulations can lead to high tissue residues in animals treated with these formulations.)
# sheep lice = test: Field efficacy (control of sheep lice); settings: 25 g/L; for Pre treatment mean lice count: baseline
# [3] = Tissue residues after aqueous pour-on, cattle; settings: 15 mg/kg pour-on, LOQ = 0.02 mg/kg
# Experimental: as §1
smiles,measurement,setting,value
"O=C(NC(=O)c1c(F)cccc1F)Nc1ccc(Cl)cc1 [Diflubenzuron, diflubenzuron]",lice killed,"[1]; 12.5 and 25.0 g/L, 20 ml dose along the backline of sheep, within 10 weeks of application",95%
same,lice kills,"[1]; 12.5 and 25.0 g/L, 20 ml dose along the backline of sheep, within 20 weeks",100%
same,% Lice reduction,"[1]; 12.5 g/L pour-on, sheep, after 2 weeks",91.0%
same,% Lice reduction,"[1]; 12.5 g/L pour-on, sheep, after 5 weeks",94.9%
same,% Lice reduction,"[1]; 12.5 g/L pour-on, sheep, after 10 weeks",98.9%
same,% Lice reduction,"[1]; 12.5 g/L pour-on, sheep, after 15 weeks",100.0%
same,% Lice reduction,"[1]; 12.5 g/L pour-on, sheep, after 20 weeks",100.0%
same,Mean Lice Counts,"[1]; 12.5 g/L, 20 mL backline (250 mg per sheep), 5 Merino wethers, week 0 (baseline)",161.8
same,Mean Lice Counts,"[1]; 12.5 g/L, 20 mL backline, sheep, 2 weeks after treatment",6.8
same,Mean Lice Counts,"[1]; 12.5 g/L, 20 mL backline, sheep, 5 weeks after treatment",1.8
same,Mean Lice Counts,"[1]; 12.5 g/L, 20 mL backline, sheep, 10 weeks after treatment",0.4
same,Mean Lice Counts,"[1]; 12.5 g/L, 20 mL backline, sheep, 15 weeks after treatment",0.0
same,Mean Lice Counts,"[1]; 12.5 g/L, 20 mL backline, sheep, 20 weeks after treatment",0.0
same,% Lice reduction,"[1]; 25.0 g/L pour-on, sheep, after 2 weeks",69.6%
same,% Lice reduction,"[1]; 25.0 g/L pour-on, sheep, after 5 weeks",83.4%
same,% Lice reduction,"[1]; 25.0 g/L pour-on, sheep, after 10 weeks",94.8%
same,% Lice reduction,"[1]; 25.0 g/L pour-on, sheep, after 15 weeks",96.4%
same,% Lice reduction,"[1]; 25.0 g/L pour-on, sheep, after 20 weeks",100.0%
same,Mean Lice Counts,"[1]; 25.0 g/L, 20 mL backline (500 mg per sheep), 5 Merino wethers, week 0 (baseline)",120.6
same,Mean Lice Counts,"[1]; 25.0 g/L, 20 mL backline, sheep, 2 weeks after treatment",17.2
same,Mean Lice Counts,"[1]; 25.0 g/L, 20 mL backline, sheep, 5 weeks after treatment",4.4
same,Mean Lice Counts,"[1]; 25.0 g/L, 20 mL backline, sheep, 10 weeks after treatment",1.4
same,Mean Lice Counts,"[1]; 25.0 g/L, 20 mL backline, sheep, 15 weeks after treatment",1.0
same,Mean Lice Counts,"[1]; 25.0 g/L, 20 mL backline, sheep, 20 weeks after treatment",0.0
same,"Level of diflubenzuron residues in tissues, Kidney",[2]; 1 day post treatment,<LOQ
same,"Level of diflubenzuron residues in tissues, Liver",[2]; 1 day post treatment,<LOQ
same,"Level of diflubenzuron residues in tissues, Muscle",[2]; 1 day post treatment,<LOQ
same,"Level of diflubenzuron residues in tissues, Inguinal fat","[2]; 1 day post treatment, max",≤ 0.02 max mg/kg
same,"Level of diflubenzuron residues in tissues, peri-renal fat","[2]; 1 day post treatment, max",≤ 0.03 max mg/kg
same,"Level of diflubenzuron residues in tissues, Kidney",[2]; 3 days post treatment,<LOQ
same,"Level of diflubenzuron residues in tissues, Liver",[2]; 3 days post treatment,<LOQ
same,"Level of diflubenzuron residues in tissues, Muscle",[2]; 3 days post treatment,<LOQ
same,"Level of diflubenzuron residues in tissues, Inguinal fat","[2]; 3 days post treatment, max",≤ 0.04 max mg/kg
same,"Level of diflubenzuron residues in tissues, peri-renal fat","[2]; 3 days post treatment, max",≤ 0.02 max mg/kg
same,"Level of diflubenzuron residues in tissues, Kidney",[2]; 7 days post treatment,<LOQ
same,"Level of diflubenzuron residues in tissues, Liver",[2]; 7 days post treatment,<LOQ
same,"Level of diflubenzuron residues in tissues, Muscle",[2]; 7 days post treatment,<LOQ
same,"Level of diflubenzuron residues in tissues, Inguinal fat","[2]; 7 days post treatment, max",≤ 0.03 max mg/kg
same,"Level of diflubenzuron residues in tissues, peri-renal fat","[2]; 7 days post treatment, max",≤ 0.02 max mg/kg
same,"Level of diflubenzuron residues in tissues, Kidney",[2]; 14 days post treatment,<LOQ
same,"Level of diflubenzuron residues in tissues, Liver",[2]; 14 days post treatment,<LOQ
same,"Level of diflubenzuron residues in tissues, Muscle",[2]; 14 days post treatment,<LOQ
same,"Level of diflubenzuron residues in tissues, peri-renal fat",[2]; 14 days post treatment,<LOQ
same,"Level of diflubenzuron residues in tissues, Inguinal fat","[2]; 14 days post treatment, max",≤ 0.02 max mg/kg
same,"Level of diflubenzuron residues in tissues, Kidney",[2]; 21 days post treatment,<LOQ
same,"Level of diflubenzuron residues in tissues, Liver",[2]; 21 days post treatment,<LOQ
same,"Level of diflubenzuron residues in tissues, Muscle",[2]; 21 days post treatment,<LOQ
same,"Level of diflubenzuron residues in tissues, peri-renal fat",[2]; 21 days post treatment,<LOQ
same,"Level of diflubenzuron residues in tissues, Inguinal fat","[2]; 21 days post treatment, max",≤ 0.05 max mg/kg
same,"Level of diflubenzuron residues in tissues, Inguinal fat",[2]; 42 days post treatment,<LOQ
same,"Level of diflubenzuron residues in tissues, Kidney",[2]; 42 days post treatment,<LOQ
same,"Level of diflubenzuron residues in tissues, Liver",[2]; 42 days post treatment,<LOQ
same,"Level of diflubenzuron residues in tissues, Muscle",[2]; 42 days post treatment,<LOQ
same,"Level of diflubenzuron residues in tissues, peri-renal fat",[2]; 42 days post treatment,<LOQ
same,% Lice reduction,"sheep lice; Trial 1, Uraila, N.S.W., 1309 fine wool merinos, after 6 weeks",98.1%
same,% Lice reduction,"sheep lice; Trial 1, Uraila, N.S.W., 1309 fine wool merinos, after 12 weeks",98.7%
same,% Lice reduction,"sheep lice; Trial 1, Uraila, N.S.W., 1309 fine wool merinos, after 20 weeks",100%
same,Pre treatment mean lice count,"sheep lice; Trial 1, Uraila, N.S.W., 1309 fine wool merinos",156
same,% Lice reduction,"sheep lice; Trial 2, Guyra, N.S.W., 2000 super fine wool, after 6 weeks",100%
same,% Lice reduction,"sheep lice; Trial 2, Guyra, N.S.W., 2000 super fine wool, after 12 weeks",100%
same,% Lice reduction,"sheep lice; Trial 2, Guyra, N.S.W., 2000 super fine wool, after 20 weeks",100%
same,Pre treatment mean lice count,"sheep lice; Trial 2, Guyra, N.S.W., 2000 super fine wool",41
same,% Lice reduction,"sheep lice; Trial 3, Crookwell, N.S.W., 680 medium fine wool merinos, after 6 weeks",91.3%
same,% Lice reduction,"sheep lice; Trial 3, Crookwell, N.S.W., 680 medium fine wool merinos, after 12 weeks",99.6%
same,% Lice reduction,"sheep lice; Trial 3, Crookwell, N.S.W., 680 medium fine wool merinos, after 20 weeks",100%
same,Pre treatment mean lice count,"sheep lice; Trial 3, Crookwell, N.S.W., 680 medium fine wool merinos",242
same,% Lice reduction,"sheep lice; Trial 4, Lucindale, N.S.W, 1094 strong wool merinos, after 6 weeks",99.8%
same,% Lice reduction,"sheep lice; Trial 4, Lucindale, N.S.W, 1094 strong wool merinos, after 12 weeks",100%
same,% Lice reduction,"sheep lice; Trial 4, Lucindale, N.S.W, 1094 strong wool merinos, after 20 weeks",100%
same,Pre treatment mean lice count,"sheep lice; Trial 4, Lucindale, N.S.W, 1094 strong wool merinos",35
same,% Lice reduction,"sheep lice; Trial 5, Coonalpyn, S.A., 1101 strong wool merinos, after 6 weeks",99.6%
same,% Lice reduction,"sheep lice; Trial 5, Coonalpyn, S.A., 1101 strong wool merinos, after 12 weeks",100%
same,% Lice reduction,"sheep lice; Trial 5, Coonalpyn, S.A., 1101 strong wool merinos, after 20 weeks",100%
same,Pre treatment mean lice count,"sheep lice; Trial 5, Coonalpyn, S.A., 1101 strong wool merinos",142
same,% Lice reduction,"sheep lice; Trial 6, Lismore, Vic, 812 super fine merinos, after 6 weeks",99.5%
same,% Lice reduction,"sheep lice; Trial 6, Lismore, Vic, 812 super fine merinos, after 12 weeks",100%
same,% Lice reduction,"sheep lice; Trial 6, Lismore, Vic, 812 super fine merinos, after 20 weeks",100%
same,Pre treatment mean lice count,"sheep lice; Trial 6, Lismore, Vic, 812 super fine merinos",51
same,"Level of diflubenzuron residues in fat tissues, Inguinal fat",[3]; 1 day post treatment,<LOQ
same,"Level of diflubenzuron residues in fat tissues, Inguinal fat",[3]; 3 days post treatment,<LOQ
same,"Level of diflubenzuron residues in fat tissues, Inguinal fat",[3]; 7 days post treatment,<LOQ
same,"Level of diflubenzuron residues in fat tissues, Peri-renal fat",[3]; 7 days post treatment,<LOQ
same,"Level of diflubenzuron residues in fat tissues, Inguinal fat",[3]; 14 days post treatment,<LOQ
same,"Level of diflubenzuron residues in fat tissues, Peri-renal fat",[3]; 14 days post treatment,<LOQ
same,concentration at 1 day,"[3]; bovine, peri-renal fat, topical, 1 day post treatment, read-out: Level of diflubenzuron residues in fat tissues, Peri-renal fat",170 ng/g
same,concentration at 3 days,"[3]; bovine, peri-renal fat, topical, 3 days post treatment, read-out: Level of diflubenzuron residues in fat tissues, Peri-renal fat",90 ng/g
